Converted amounts (≈) assume the structure as drawn. Read-outs that look alike come from different tables or passages of the source. Non-standard residues stand in square brackets, D forms with d. Residues, ends and D or L forms follow the SMILES beside them.
Columns and labels:
[1] = system: S. aureus (MRSA) ATCC 33591; format: cell-based, Staphylococcus aureus; settings: for MRSA (in vitro activity): Table 9
Outline: (§1)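 First, peptide stocks in 5% DMSO/9% sucrose were quantified and diluted 2-fold over roughly 400-2 μg/ml. Next, overnight cultures were diluted 4000-fold to ~2.5×10^5 cfu/ml and combined with peptide. Minimum inhibitory concentrations followed NCCLS broth macro- or microdilution procedures.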

[2] = system: murine red blood cells; test: Red blood cell hemolysis; format: cell-based, mouse; set-up: RBC Hemolysis (HD50): unit not given here
Outline: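 Hemolysis read as A560 of supernatant, scaled between saline (0%) and 1% Triton X-100 (100%) controls; peptides were serially diluted onto 5% murine red cells in saline plus 10% FBS and incubated 30 min at 37° C.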

[3] = system: vancomycin-resistant Enterococus faecalis (VRE)(ATCC 51575); format: cell-based, Enterococcus faecalis; set-up: key to VRE (in vitro activity): peptide concentration in μg/ml (broth dilution assay); settings: for VRE (in vitro activity): Table 9
Outline: as §1

[4] = system: E. coli (EL744) K12 (tolC::kan); test: microbe, parasite or virus in culture; format: cell-based, Escherichia coli; settings: for MIC: Escherichia coli, read-out: E. coli (EL744) K12 (tolC::kan) MIC
Method: (§2) The antimicrobial activity of the peptides was determined using a broth dilution assay essentially as descried in the guidelines of the National Committee for […] (NCCLS) [National Committee for Clinical Laboratory Standards. Methods for dilution antimicrobial susceptibility tests for bacteria that grow aerobically. Fourth edition. Approved Standard (1997). Document M7-A4. […] The microdilution method has the advantages of requiring less amount of peptide for each assay and the possibility of multiple simultaneous inoculations and was used in most studies. Several of the strains of bacteria tested are further described in Table 3.
(§3) Preparation of peptide solutions. Stock peptide solutions were prepared in 5% DMSO in aq. sucrose (9%). Determination of peptide concentrations was done by quantitative HPLC analysis using known concentrations of internal standards and/or by measuring UV absorption of tryptophane-containing peptide solutions in H2O (λ=280 εTrp: 5690). Serial 2-fold dilutions were made in the above DMSO/aq. sucrose (9%) mixture with concentrations ranging approximately 400-2 μg/ml and aliquots were dispensed in test tubes (100 μl) for the macrodilution test or in microtiter plates (20 μl) for the microdilution assays.
(§4) Inoculum preparation. Overnight cultures of different microorganisms grown in suitable media were diluted 4000 times to an approximate inoculum size of 2.5×10^5 cfu/ml.
(§5) Macrodilution method. Macrodilution methods were performed using procedures similar to those described in the National Committee for Clinical Laboratory Standards. Methods for dilution antimicrobial susceptibility tests for bacteria that grow aerobically. Fourth edition. Approved Standard (1997). Document M7-A4. (NCCLS,Villanova, Pa., 1997). Two ml aliquots of the above inoculum were dispensed to test tubes containing different peptide solutions.
(§6) Microdilution method. Microdilution methods were performed using procedures similar to those described in the National Committee for Clinical Laboratory Standards. Methods for dilution antimicrobial susceptibility tests for bacteria that grow aerobically. Fourth edition. Approved Standard (1997). Document M7-A4.

[5] = system: E. coli (K12); test: microbe, parasite or virus in culture; format: cell-based, Escherichia coli; settings: for MIC: Escherichia coli, read-out: E. coli (K12) MIC
Method: as §2, §3, §4, §5, §6

[6] = system: H. influenzae ATCC 49247; test: microbe, parasite or virus in culture; format: cell-based, Hemophilus influenzae; settings: for MIC: Haemophilus influenzae
Method: as §2, §3, §4, §5, §6

[7] = system: E. faecalis ATCC 51299; test: microbe, parasite or virus in culture; format: cell-based, Enterococcus faecalis; settings: for MIC: Enterococcus faecalis
Method: as §2, §3, §4, §5, §6

[8] = system: E. faecium SP180; test: microbe, parasite or virus in culture; format: cell-based, Enterococcus faecium; settings: for MIC: Enterococcus faecium
Method: as §2, §3, §4, §5, §6

[9] = system: S. aureus ATCC 33592; test: microbe, parasite or virus in culture; format: cell-based, Staphylococcus aureus; settings: for MIC: Staphylococcus aureus
Method: as §2, §3, §4, §5, §6

[10] = Human; cited from earlier work
[11] = system: S. aureus (MRSA) (ATCC No. 33592); test: Time-killing curve, S. aureus MRSA ATCC 33592; format: cell-based, Staphylococcus aureus
Method: The speed at which several of the cyclic peptides of the invention kill E. coli JM 109 (DE3), Enterococcus faecium SP 180 and S. aureus (MRSA) (ATCC No. 33591 and 33592) was further tested at room temperature and/or at 37° C. A lower temperature tends to enrich the bacterial cultures for mature bacteria because the bacteria are not growing quickly. […] The presence or absence of immature bacteria in the culture may influence the rate at which the bacteria are killed, because immature bacteria tend to be more susceptible to many forms of antibiotics.
FIGS. 9 and 10 illustrate the time course for killing S. aureus (MRSA) (ATCC No. 33592) with varying concentrations of cyclo[KSKWLWLW] cyclic peptide (SEQ ID NO:12) at room temperature and at 37° C. […] This may be due to growth of a few survivors after the residual cyclic peptide within the culture has been exhausted because the amount of peptide employed in that assay was below the MIC value.

[12] = system: E. coli JM109(DE3); format: cell-based, Escherichia coli
Outline: as §1

[13] = system: Bacillus cereus ATCC 11778; format: cell-based; settings: Table 10
Outline: as §1

[14] = trypsin, α-chymotrypsin, subtilisin, blood plasma; RP-HPLC over 24 h
Method: Cyclic peptides having SEQ ID NO:13, 18, 26, and 29 were assayed for proteolytic susceptibility.

[15] = media b: cation adjusted Meuller Hinton broth (MHBII)
[16] = media c: Brain Heart Infusion (BHI)
[17] = ATCC51299, read-out: E. faecalis ATCC 51299 MIC
[18] = SP180, read-out: E. faecium SP180 MIC
[19] = ATCC33592, read-out: S. aureus ATCC 33592 MIC
[20] = ATCC49247, HTM, read-out: H. influenzae ATCC 49247 MIC

CN[C@H](CC(C)C)C(=O)N[C@H]1C(=O)N[C@@H](CC(N)=O)C(=O)N[C@H]2C(=O)N[C@H]3C(=O)N[C@H](C(=O)N[C@H](C(=O)O)c4cc(O)cc(O)c4-c4cc3ccc4O)[C@H](O)c3ccc(c(Cl)c3)Oc3cc2cc(c3O[C@@H]2O[C@H](CO)[C@@H](O)[C@H](O)[C@H]2O[C@H]2C[C@](C)(N)[C@H](O)[C@H](C)O2)Oc2ccc(cc2Cl)[C@H]1O [Vancomycin, reference compound]
MRSA (in vitro activity) [1, 15]: VANCOMYCIN <1.8
RBC Hemolysis (HD50) ([2]; Table 9): >240
VRE (in vitro activity) [3, 16]: >240
MIC [4]: 128 mg/L (≈ 88.3 µM)
MIC [5]: 128 mg/L (≈ 88.3 µM)
MIC ([6]; ATCC49247, read-out: H. influenzae ATCC 49247 MIC): 128 mg/L (≈ 88.3 µM)
MIC [7, 17]: 32 mg/L (≈ 22.1 µM)
MIC [8, 18]: > 128 mg/L
MIC [9, 19]: 0.5 mg/L (≈ 0.345 µM)
CL total clearance [10]: 66 mL/min
Kel elimination rate constant [10]: 0.12 h⁻¹
T1/2 half life time [10]: 6 h
VD volume of distribution [10]: 0.47 L/kg

CC[C@H]1OC(=O)[C@H](C)[C@@H](O[C@H]2C[C@@](C)(OC)[C@@H](O)[C@H](C)O2)[C@H](C)[C@@H](O[C@@H]2O[C@H](C)C[C@H](N(C)C)[C@H]2O)[C@](C)(O)C[C@@H](C)C(=O)[C@H](C)[C@@H](O)[C@]1(C)O [Erythromycin]
Kel elimination rate constant [10]: 0.58 h⁻¹
T1/2 half life time [10]: 1.2 h

CC1(C)S[C@@H]2[C@H](NC(=O)Cc3ccccc3)C(=O)N2[C@H]1C(=O)O [Penicillin G, reference compound]
E. coli (EL744) K12 (tolC::kan) MIC ([4]; MHII broth): 16 mg/L
E. coli (K12) MIC ([5]; MHII broth): 32 mg/L
H. influenzae ATCC 49247 MIC ([6]; HTM): 4 mg/L
E. faecalis ATCC 51299 MIC ([7]; BHI broth): 0.5 mg/L
E. faecium SP180 MIC ([8]; BHI broth): 128 mg/L
S. aureus ATCC 33592 MIC ([9]; MHII broth): 64 mg/L
reduction of cfu ([11]; 512 μg/ml, 37° C.): effective in reducing the number of cfu within four hours
killing or reducing S. aureus (MRSA) population ([11]; room temperature, 0-8 hours, up to 512 μg/ml): no concentration of penicillin G assayed up to 512 μg/ml was effective

CC(C)C[C@H]1NC(=O)[C@H](Cc2c[nH]c3ccccc23)NC(=O)[C@@H](CCCCN)NC(=O)[C@H](Cc2c[nH]cn2)NC(=O)[C@@H](CO)NC(=O)[C@H](Cc2c[nH]c3ccccc23)NC(=O)[C@@H](CC(C)C)NC(=O)[C@H](Cc2c[nH]c3ccccc23)NC1=O [SEQ ID NO:13] (cyclo([dS]H[dK]W[dL]W[dL]W))
S. aureus (MRSA) MIC ([1]; Table 6, ATCC 33591): 10 mg/L
MRSA (in vitro activity) ([1]; media a: anti-microbial media-3 (AM-3)): 10
MRSA MIC ([1]; Table 10, ATCC 33591): 10 mg/L
E. coli MIC ([12]; Table 6, JM109(DE3)): 100 mg/L
RBC Hemolysis (HD50) ([2]; Table 9): 35
VRE (in vitro activity) ([3]; media a: AM-3): 40
VRE MIC ([3]; Table 10, ATCC 51575): 40 mg/L
B. cerius MIC [13]: 12 mg/L
proteolytic stability [14]: stable

CC(C)C[C@H]1NC(=O)[C@H](CCCNC(=N)N)NC(=O)[C@@H](CCCNC(=N)N)NC(=O)[C@H](Cc2c[nH]c3ccccc23)NC(=O)[C@@H](CC(C)C)NC(=O)[C@H](Cc2c[nH]c3ccccc23)NC1=O [SEQ ID NO:29, cyclo-(D-Arg-Arg-D-Leu-Trp-D-Leu-Trp)] (cyclo(R[dL]W[dL]W[dR]))
S. aureus (MRSA) MIC ([1]; ATCC 33591): 35 mg/L
E. coli MIC ([12]; JM109): 5 mg/L
Hemolysis HD50 ([2]; red cells of murine): 90 µg/mL
proteolytic stability [14]: stable

NC[C@H]1O[C@H](O[C@H]2[C@H](O)[C@@H](O[C@H]3O[C@H](CO)[C@@H](O)[C@H](N)[C@H]3O)[C@H](N)C[C@@H]2N)[C@H](O)[C@@H](O)[C@@H]1O [Kanamycin, reference compound]
MRSA (in vitro activity) [1, 15]: 150
RBC Hemolysis (HD50) ([2]; mouse, 30 min): >600
VRE (in vitro activity) [3, 16]: >600
MIC [4]: > 128 mg/L
MIC ([5]; MHII broth): 4 mg/L (≈ 8.26 µM)
MIC [6, 20]: 4 mg/L (≈ 8.26 µM)
MIC [7, 17]: > 128 mg/L
MIC [8, 18]: > 128 mg/L
MIC [9, 19]: > 128 mg/L

CCn1cc(C(=O)O)c(=O)c2cc(F)c(N3CCNCC3)cc21 [Norfloxacin, reference compound]
MRSA (in vitro activity) [1, 15]: <2.8
RBC Hemolysis (HD50) ([2]; mouse, 30 min): >360
VRE (in vitro activity) [3, 16]: <2.8
MIC [4]: 0.016 mg/L (≈ 0.0501 µM)
MIC ([5]; MHII broth): 0.06 mg/L (≈ 0.188 µM)
MIC [6, 20]: 0.06 mg/L (≈ 0.188 µM)
MIC ([7]; ATCC51299, BHI broth, read-out: E. faecalis ATCC 51299 MIC): 2 mg/L (≈ 6.26 µM)
MIC ([8]; SP180, BHI broth, read-out: E. faecium SP180 MIC): 32 mg/L (≈ 100 µM)
MIC ([9]; ATCC33592, MHII broth, read-out: S. aureus ATCC 33592 MIC): 0.5 mg/L (≈ 1.57 µM)

Source: patent US20050107289A1, “Anti-microbial peptides and compositions” (priority 2001, published 2005)
